Test system: mouse pulmonary fibrosis models (bleomycin)
Assay: Test for inhibition of pulmonary fibrosis in mouse (bleomycin model, lung hydroxyproline)
Type: in vivo, ICR mice
Details: dose of 0.3 mg/kg, intratracheal administration twice per day for 28 days
Description: Test for inhibition effect of pulmonary fibrosis using mouse was performed by partially modifying the method of Oku et al. (European Journal of Pharmacology, 590, 400 (2008)). […] These models were used as a bleomycin control group and a test compound administration group. Similarly, a normal group was subjected to administration of saline for 5 days. For the test, each group used 7 or more mice. The test compound solution for the administration was prepared by dissolving the test substance to the equimolar amount of 0.1 mol/L aqueous sodium hydroxide solution, and then neutralizing by adding a phosphate buffer solution (PBS) which was a medium. The test compound was administered via intratracheal administration twice per day from the start date of the test, for 28 days. For the normal group and bleomycin control group, the medium was administered similarly via intratracheal administration. For the intratracheal administration, the MicroSprayerTM (IA-1C-M, manufactured by PennCentury) was used. On the day following the completion of 28-day administration, the mice were left bleeding to die while subjecting the mice for inhalation anesthesia, to collect the lungs. […] The amount of hydroxyproline (HYP) in the lung hydrolysis solution, which is an indicator of collagen accumulation, was measured by the method of Woessner et al. (Archives of Biochemistry and Biophysics, 93, 440 (1961)). […] After cooling, 200 μL of the colored solution was placed on a microplate, and the absorbance (measurement wavelength: 570 nm, reference wavelength: 620 nm) was measured using a plate reader (SPECTRA FLOUR, manufactured by Tecan). A HYP solution having a specified concentration was reacted in the same manner to create a calibration curve, and the HYP concentration of each sample was calculated. From the calculated HYP concentration, the amount of HYP in the lung per 100 g of body weight was calculated. The inhibiting rate of HYP formation in the lung upon administration of the test compound was calculated using the formula described below. […]

| SMILES | Inhibiting rate of HYP formation in the lung [%] |
| --- | --- |
| CC#Cc1cccc(-c2ccc(CN(Cc3cccc(NCC(=O)O)n3)S(=O)(=O)c3ccccn3)cc2)c1 [Example 4, (6-{[3′-(1-Propynyl)biphenyl-4-ylmethyl](pyridin-2-ylsulfonyl)aminomethyl}-pyridin-2-ylamino)acetic acid] | ≥ 70 |
| CCOc1cccc(-c2ccc(CN(Cc3cccc(NCC(=O)O)n3)S(=O)(=O)c3ccccc3)cc2)c1 [Example 10, {6-[(Benzenesulfonyl)(3′-ethoxybiphenyl-4-ylmethyl)aminomethyl]pyridin-2-ylamino}acetic acid] | ≥ 70 |
| CC#Cc1cccc(-c2ccc(CN(Cc3cccc(NCC(=O)O)n3)S(=O)(=O)c3ccccc3)cc2)c1 [Example 16, (6-{(Benzenesulfonyl)[3′-(1-propynyl)biphenyl-4-ylmethyl]aminomethyl}-pyridin-2-ylamino)acetic acid] | ≥ 70 |

Target: human EP2 receptor (Homo sapiens (Human), UniProt P43116)
Sequence (P43116 whole entry): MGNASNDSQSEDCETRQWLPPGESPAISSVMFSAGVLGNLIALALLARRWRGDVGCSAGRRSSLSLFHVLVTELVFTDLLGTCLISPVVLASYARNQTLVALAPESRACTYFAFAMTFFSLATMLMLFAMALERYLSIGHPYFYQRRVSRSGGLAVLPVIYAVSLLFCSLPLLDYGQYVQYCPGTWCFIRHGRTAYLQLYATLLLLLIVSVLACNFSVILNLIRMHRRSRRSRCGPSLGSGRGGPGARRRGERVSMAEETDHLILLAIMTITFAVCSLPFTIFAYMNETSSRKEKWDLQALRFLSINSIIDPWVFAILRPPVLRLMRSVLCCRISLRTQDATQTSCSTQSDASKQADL
Assay: Measurement of EP2 receptor binding action
Details: membrane fraction of HEK293 cells expressing human EP2 receptor; [3H]prostaglandin E2 10 nM
Description: The membrane fraction was recovered on glass fiber filter paper (GF/B, manufactured by Whatman) using a cell harvester (M30R, manufactured by Brandel), and after washing with a buffer solution (10 mM MES-KOH (pH 6.0), 10 mM MgCl2), radioactivity was measured with a liquid scintillation analyzer (2000CA, manufactured by Packard). […] Ki=IC50/(1+([^3H]prostaglandin E2 concentration/Kd))
Note that the dissociation constant (Kd value) was calculated by Scatchard analysis.

| SMILES | Ki [nM] |
| --- | --- |
| CCC=Cc1cccc(-c2ccc(CN(Cc3cccc(NCC(=O)O)n3)S(=O)(=O)c3ccccn3)cc2)c1 [Comparative example 9, (6-{[3′-(1-Butenyl)biphenyl-4-ylmethyl](pyridin-2-ylsulfonyl)aminomethyl}-pyridin-2-ylamino)acetic acid] | 1.5 |
| CCOc1cc(-c2ccc(CN(Cc3cccc(NCC(=O)O)n3)S(=O)(=O)c3ccccn3)cc2)ccn1 [Comparative example 15, (6-{[4-(2-Ethoxypyridin-4-yl)benzyl](pyridin-2-ylsulfonyl)aminomethyl}-pyridin-2-ylamino)acetic acid] | 3.2 |

Test system: Pulmonary fibroblasts derived from a human fetus (IMR90)
Assay: Test for inhibition of pulmonary fibroblast proliferation (BrdU incorporation)
Type: cell-based
Details: Homo sapiens, IMR-90, read-out: IC50 value (nM) of inhibition effect of pulmonary fibroblast proliferation
Description: Measurement of inhibition effect of pulmonary fibroblast proliferation was performed by modifying the method of Huang et al. (American Journal of Respiratory Cell and Molecular Biology, 39, 482 (2008)). Pulmonary fibroblasts derived from a human fetus (IMR90, purchased from American Type Culture Collection) were cultured in DMEM medium containing 10% FBS and seeded at 1×10^4 cells/well of a 96-well plate. After culturing for approximately 8 hours in a carbon dioxide incubator, the medium was replaced with FBS-free DMEM medium and the culturing was performed for one night. On the following day, the medium was replaced with a new FBS-free DMEM medium, and then a test compound dissolved in dimethyl sulfoxide (final concentration: 0.1%) and FGF (final concentration: 10 ng/mL, manufactured by Wako Pure Chemical Industries, Ltd.) were added thereto and allowed to stand undisturbed in a carbon dioxide incubator. After 22 hours, a BrdU labeling solution (manufactured by Roche) was added and culturing was performed for another 2 hours. After the completion of the culturing, amount of BrdU incorporation was measured using Cell Proliferation ELISA BrdU (colorimetric) (manufactured by Roche). The concentration of the test compound required to inhibit BrdU incorporation to 50% (IC50 value) was calculated by non-linear regression of the test compound concentration and the amount of BrdU incorporation using EXSAS (Ver. 8.0.0, manufactured by Arm Systex).

| SMILES | IC50 [nM] |
| --- | --- |
| O=C(O)CNc1cccc(CN(Cc2ccc(-c3ccccc3)cc2)S(=O)(=O)c2ccccn2)n1 [Comparative example 1] | > 1 |
| O=C(O)CNc1cccc(CN(Cc2ccc(-c3ccccc3)cc2)S(=O)(=O)c2cccnc2)n1 [Comparative example 2, {6-[(Biphenyl-4-ylmethyl)(pyridin-3-ylsulfonyl)aminomethyl]pyridin-2-ylamino}acetic acid] | 0.97 |
| O=C(O)CNc1cccc(CN(Cc2ccc(-c3ccc(F)cc3)cc2)S(=O)(=O)c2cccnc2)n1 [Comparative example 3, {6-[(4′-Fluorobiphenyl-4-ylmethyl)(pyridin-3-ylsulfonyl)aminomethyl]-pyridin-2-ylamino}acetic acid] | > 1 |
| O=C(O)CNc1cccc(CN(Cc2ccc(-c3ccc(Cl)cc3)cc2)S(=O)(=O)c2cccnc2)n1 [Comparative example 4, {6-[(4′-Chlorobiphenyl-4-ylmethyl)(pyridin-3-ylsulfonyl)aminomethyl]-pyridin-2-ylamino}acetic acid] | > 1 |
| CC#Cc1ccccc1-c1ccc(CN(Cc2cccc(NCC(=O)O)n2)S(=O)(=O)c2ccccn2)cc1 [Comparative example 16] | 0.5 |
| CC#Cc1ccc(-c2ccc(CN(Cc3cccc(NCC(=O)O)n3)S(=O)(=O)c3ccccn3)cc2)cc1 [Comparative example 17] | > 1 |
| CC#Cc1cccc(-c2ccc(CN(Cc3cccc(NCC(=O)O)n3)S(=O)(=O)c3ccccn3)cc2)c1 [Example 4, (6-{[3′-(1-Propynyl)biphenyl-4-ylmethyl](pyridin-2-ylsulfonyl)aminomethyl}-pyridin-2-ylamino)acetic acid] | 0.016 |
| CC#Cc1cccc(-c2ccc(CN(Cc3cccc(NCC(=O)O)n3)S(=O)(=O)c3cccnc3)cc2)c1 [Example 6, (6-{[3′-(1-Propynyl)biphenyl-4-ylmethyl](pyridin-3-ylsulfonyl)aminomethyl}-pyridin-2-ylamino)acetic acid] | 0.045 |
| CCOc1cccc(-c2ccc(CN(Cc3cccc(NCC(=O)O)n3)S(=O)(=O)c3cccnc3)cc2)c1 [Example 9, {6-[(3′-Ethoxybiphenyl-4-ylmethyl)(pyridin-3-ylsulfonyl)aminomethyl]-pyridin-2-ylamino}acetic acid] | 0.051 |
| CCOc1cccc(-c2ccc(CN(Cc3cccc(NCC(=O)O)n3)S(=O)(=O)c3ccccc3)cc2)c1 [Example 10, {6-[(Benzenesulfonyl)(3′-ethoxybiphenyl-4-ylmethyl)aminomethyl]pyridin-2-ylamino}acetic acid] | 0.035 |
| CC#Cc1cccc(-c2ccc(CN(Cc3cccc(NCC(=O)O)n3)S(=O)(=O)c3cccs3)cc2)c1 [Example 14, (6-{[3′-(1-Propynyl)biphenyl-4-ylmethyl](thiophen-2-ylsulfonyl)-aminomethyl}pyridin-2-ylamino)acetic acid] | 0.011 |
| CC#Cc1cccc(-c2ccc(CN(Cc3cccc(NCC(=O)O)n3)S(=O)(=O)c3ccccc3)cc2)c1 [Example 16, (6-{(Benzenesulfonyl)[3′-(1-propynyl)biphenyl-4-ylmethyl]aminomethyl}-pyridin-2-ylamino)acetic acid] | 0.0088 |
| CC#Cc1cccc(-c2ccc(CN(Cc3cccc(NCC(=O)O)n3)S(=O)(=O)c3cccc(F)c3)cc2)c1 [Example 19, (6-{(3-Fluorobenzenesulfonyl)[3′-(1-propynyl)biphenyl-4-ylmethyl]-aminomethyl}pyridin-2-ylamino)acetic acid] | 0.026 |

Same assay, conditions: Homo sapiens, IMR-90; IMR90; FGF 10 ng/mL; BrdU incorporation; read-out: IC50 value (nM) of inhibition effect of pulmonary fibroblast proliferation

| SMILES | IC50 [nM] |
| --- | --- |
| Cc1cnc(-c2ccc(CN(Cc3cccc(NCC(=O)O)n3)S(=O)(=O)c3ccccn3)cc2)s1 [Comparative example 5] | > 1 |
| Cc1cccc(-c2ccc(CN(Cc3cccc(NCC(=O)O)n3)S(=O)(=O)c3ccccn3)cc2)c1 [Comparative example 6] | 0.58 |
| CCc1cccc(-c2ccc(CN(Cc3cccc(NCC(=O)O)n3)S(=O)(=O)c3ccccn3)cc2)c1 [Comparative example 7] | 0.88 |
| CCCc1cccc(-c2ccc(CN(Cc3cccc(NCC(=O)O)n3)S(=O)(=O)c3ccccn3)cc2)c1 [Comparative example 8] | 0.34 |
| CCC=Cc1cccc(-c2ccc(CN(Cc3cccc(NCC(=O)O)n3)S(=O)(=O)c3ccccn3)cc2)c1 [Comparative example 9, (6-{[3′-(1-Butenyl)biphenyl-4-ylmethyl](pyridin-2-ylsulfonyl)aminomethyl}-pyridin-2-ylamino)acetic acid] | 0.75 |
| C=CCc1cccc(-c2ccc(CN(Cc3cccc(NCC(=O)O)n3)S(=O)(=O)c3ccccn3)cc2)c1 [Comparative example 10] | 0.56 |
| COc1cccc(-c2ccc(CN(Cc3cccc(NCC(=O)O)n3)S(=O)(=O)c3ccccn3)cc2)c1 [Comparative example 11] | 0.2 |
| CCOc1ccccc1-c1ccc(CN(Cc2cccc(NCC(=O)O)n2)S(=O)(=O)c2ccccn2)cc1 [Comparative example 13] | > 1 |
| CCOc1ccc(-c2ccc(CN(Cc3cccc(NCC(=O)O)n3)S(=O)(=O)c3ccccn3)cc2)cc1 [Comparative example 14] | > 1 |
| CCOc1cc(-c2ccc(CN(Cc3cccc(NCC(=O)O)n3)S(=O)(=O)c3ccccn3)cc2)ccn1 [Comparative example 15, (6-{[4-(2-Ethoxypyridin-4-yl)benzyl](pyridin-2-ylsulfonyl)aminomethyl}-pyridin-2-ylamino)acetic acid] | > 1 |
| CC=Cc1cccc(-c2ccc(CN(Cc3cccc(NCC(=O)O)n3)S(=O)(=O)c3ccccn3)cc2)c1 [Example 2] | 0.035 |
| CCOc1cccc(-c2ccc(CN(Cc3cccc(NCC(=O)O)n3)S(=O)(=O)c3ccccn3)cc2)c1 [Example 7, {6-[(3′-Ethoxybiphenyl-4-ylmethyl)(pyridin-2-ylsulfonyl)aminomethyl]-pyridin-2-ylamino}acetic acid] | 0.028 |
| CCOc1cccc(-c2ccc(CN(Cc3cccc(NCC(=O)O)n3)S(=O)(=O)c3cccs3)cc2)c1 [Example 11, {6-[(3′-Ethoxybiphenyl-4-ylmethyl)(thiophen-2-ylsulfonyl)aminomethyl]-pyridin-2-ylamino}acetic acid] | 0.049 |
| CCOc1cccc(-c2ccc(CN(Cc3cccc(NCC(=O)O)n3)S(=O)(=O)c3ccccn3)cc2)n1 [Example 12, (6-{[4-(6-Ethoxypyridin-2-yl)benzyl](pyridin-2-ylsulfonyl)aminomethyl}-pyridin-2-ylamino)acetic acid] | 0.037 |

Reference: patent US9676720B2, “Substituted biaryl compound” (UBE INDUSTRIES, LTD., priority 2013, dated 2017)
